Converted amounts (≈) assume the structure as drawn. Counter-ions that a name gives are not always drawn. Starred links: 1 amine or outer side, 2 acyl side, 3 side chain; linkers in the order of their positions; H or OH if unused. Positions of bridges follow the written chain, without caps; N, C: chain ends. Non-standard residues stand in square brackets, D forms with d. Residues, ends and D or L forms follow the SMILES beside them. *: point of attachment. X1 = O=C([C@@H](C[C@@H]1C[C@H]1C(F)(F)F)N[*:1])[*:2]; X2 = C/C=C\[C@H]1C[C@@H](C(=O)[*:2])N([*:1])C1; Phe(3R-Me) = C[C@H](c1ccccc1)[C@H](N)C(=O)O; d(aThr) = C[C@@H](O)[C@@H](N)C(=O)O; Tfa = O=C(C(F)(F)F)*
Legend:
[1] = tested on: Plasmodium falciparum strain K1; test: microbe, parasite or virus in culture
Protocol: (§1) The syntheses of hormaomycin (1) itself and of its all-peptide aza-analogues 60 and 61 (Figure 6) as developed by Zlatopolskiy et al., were reproduced in order to provide large enough quantities for biological tests of their antimalarial activities.
(§2) In vitro antiprotozoal activity assays: The in vitro activities against the protozoan parasites L. donovani and P. falciparum as well as cytotoxicity assessments against L6 cells were determined as reported elsewhere.

[2] = tested on: Leishmania donovani strain MHOM-ET-67/L82; test: microbe, parasite or virus in culture; conditions: for activity against L. donovani (in words): in vitro
Protocol: as §1, §2

coryneform bacteria = tested on: coryneform bacteria; set-up: method as in doi:10.1002/hlca.19890720303, doi:10.1002/ange.19901020122; conditions: cited from earlier work
[3] = set-up: method as in PMID 12760691; conditions: cited from earlier work
L6 cells = test: cells
Protocol: as §2

Compound | IC50 against Plasmodium falciparum strain K1 [1] [µg/mL] | IC50 against Leishmania donovani strain MHOM-ET-67/L82 [2] [µg/mL] | IC50 against L6 cells (L6 cells) [µg/mL] | other results
C/C=C\[C@H]1C[C@H]2C(=O)O[C@H](C)[C@@H](NC(=O)[C@H](C[C@@H]3C[C@H]3[N+](=O)[O-])NC(=O)c3ccc(Cl)n3O)C(=O)N[C@@H]([C@H](C)c3ccccc3)C(=O)N[C@H](C[C@@H]3C[C@H]3[N+](=O)[O-])C(=O)N[C@@H]([C@H](C)c3ccccc3)C(=O)N[C@@H]([C@@H](C)CC)C(=O)N2C1 [Compound 1, hormaomycin] | – | – | – | antimalarial activity (in words) ([1]; in vitro): good and selective antimalarial activities; activity against L. donovani (in words) [2]: showed an activity against L. donovani; inhibitory effect on coryneform bacteria (in words) (coryneform bacteria): exceptionally selective inhibitory effect; antimalarial activity (in words) [3]: interesting antimalarial activity
COc1cc([C@@H]2c3cc4c(cc3[C@H](O)[C@H]3COC(=O)[C@H]23)OCO4)cc(OC)c1OC [Podophyllotoxin, reference compound] | – | – | – | IC50 (L6 cells; Rattus norvegicus, L6, read-out: IC50 against L6 cells): 0.006 µg/mL (≈ 0.0145 µM)
CCCCCCCCCCCCCCCCOP(=O)([O-])OCC[N+](C)(C)C [Miltefosine, reference compound] | – | – | – | IC50 ([2]; Leishmania donovani, read-out: IC50 against Leishmania donovani strain MHOM-ET-67/L82): 0.143 µg/mL (≈ 0.351 µM)
C/C=C\[C@H]1C[C@H]2C(=O)O[C@H](C)[C@@H](NC(=O)C(F)(F)F)C(=O)N[C@@H]([C@H](C)c3ccccc3)C(=O)N[C@H](C[C@@H]3C[C@H]3C(F)(F)F)C(=O)N[C@@H]([C@H](C)c3ccccc3)C(=O)N[C@@H]([C@@H](C)CC)C(=O)N2C1 [Compound 59] (Tfa-[d(aThr)][Phe(3R-Me)][X1][Phe(3R-Me)]I[X2]; ester 1-C) | 0.265 | 2.37 | >90 | –
CCN(CC)CCCC(C)Nc1ccnc2cc(Cl)ccc12 (stereo not shown) [Chloroquine, reference compound] | – | – | – | IC50 ([1]; Plasmodium falciparum, K1, read-out: IC50 against Plasmodium falciparum strain K1): 0.089 µg/mL (≈ 0.278 µM)

Now from value to compound, other results behind:

IC50 against Plasmodium falciparum strain K1 [1] [µg/mL] | IC50 against Leishmania donovani strain MHOM-ET-67/L82 [2] [µg/mL] | Compound | IC50 against L6 cells (L6 cells) [µg/mL] | other results
0.183 (≈ 0.156 µM) | 0.205 (≈ 0.174 µM) | C/C=C\[C@H]1C[C@H]2C(=O)O[C@H](C)[C@@H](NC(=O)[C@H](C[C@@H]3C[C@H]3C(F)(F)F)NC(=O)c3ccc(Cl)n3O)C(=O)N[C@@H]([C@H](C)c3ccccc3)C(=O)N[C@H](C[C@@H]3C[C@H]3C(F)(F)F)C(=O)N[C@@H]([C@H](C)c3ccccc3)C(=O)N[C@@H]([C@@H](C)CC)C(=O)N2C1 [Compound 8a] | 40 (≈ 34 µM) | activity against L. donovani (in words) [2]: showed an activity against L. donovani; activity against L. donovani lower than that of hormaomycin (1) ([2]; relative to hormaomycin (1)): 37%
0.042 (≈ 0.042 µM) | 2.13 (≈ 2.13 µM) | C/C=C\[C@H]1C[C@H]2C(=O)O[C@H](C)[C@@H](NC(=O)OCc3ccc(C)cc3)C(=O)N[C@@H]([C@H](C)c3ccccc3)C(=O)N[C@H](C[C@@H]3C[C@H]3C(F)(F)F)C(=O)N[C@@H]([C@H](C)c3ccccc3)C(=O)N[C@@H]([C@@H](C)CC)C(=O)N2C1 [Compound 52a] | >90 | –
0.151 (≈ 0.169 µM) | 1.73 (≈ 1.93 µM) | C/C=C\[C@H]1C[C@H]2C(=O)O[C@H](C)[C@@H](NC(C)=O)C(=O)N[C@@H]([C@H](C)c3ccccc3)C(=O)N[C@H](C[C@@H]3C[C@H]3C(F)(F)F)C(=O)N[C@@H]([C@H](C)c3ccccc3)C(=O)N[C@@H]([C@@H](C)CC)C(=O)N2C1 [Compound 58] (Ac-[d(aThr)][Phe(3R-Me)][X1][Phe(3R-Me)]I[X2]; ester 1-C) | >90 | –
0.061 (≈ 0.0633 µM) | – | C/C=C\[C@H]1C[C@H]2C(=O)NC[C@@H](NC(=O)OCc3ccc(C)cc3)C(=O)N[C@@H]([C@H](C)c3ccccc3)C(=O)N[C@H](C[C@@H]3C[C@H]3[N+](=O)[O-])C(=O)N[C@@H]([C@H](C)c3ccccc3)C(=O)N[C@@H]([C@@H](C)CC)C(=O)N2C1 [Compound 61] | – | –

— publication PMC4273223, “(2R,1'S,2'R)- and (2S,1'S,2'R)-3-[2-Mono(di,tri)fluoromethylcyclopropyl]alanines and their incorporation into hormaomycin analogues” (Beilstein Journal of Organic Chemistry, 2014)
